Results on one compound are retold here after paper PMC6804443 (Acta Pharmaceutica Sinica. B, 2019).

The target in one data set is T1, UGT1A6 (Homo sapiens, UniProt P19224).
T1 sequence (P19224 27-532): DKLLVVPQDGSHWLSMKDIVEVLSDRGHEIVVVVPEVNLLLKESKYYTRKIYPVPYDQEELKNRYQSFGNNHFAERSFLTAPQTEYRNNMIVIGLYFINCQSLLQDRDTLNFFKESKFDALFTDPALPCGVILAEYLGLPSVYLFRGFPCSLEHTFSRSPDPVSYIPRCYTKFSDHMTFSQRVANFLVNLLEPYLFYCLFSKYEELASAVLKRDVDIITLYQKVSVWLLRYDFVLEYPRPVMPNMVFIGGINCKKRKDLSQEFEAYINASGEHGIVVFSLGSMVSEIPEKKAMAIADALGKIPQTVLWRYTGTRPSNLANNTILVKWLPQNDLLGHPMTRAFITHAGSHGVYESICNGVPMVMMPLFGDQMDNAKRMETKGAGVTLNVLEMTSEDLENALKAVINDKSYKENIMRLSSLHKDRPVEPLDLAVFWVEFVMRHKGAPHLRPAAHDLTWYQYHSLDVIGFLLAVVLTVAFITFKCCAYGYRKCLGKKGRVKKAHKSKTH
The data set is described as follows: UGT1A6 inhibition by XueBiJing compounds, cDNA-expressed enzyme [4-MU→4-MUG]. The data set is classed as in vitro ADME.

A further data set deals with OATP1B1 (Homo sapiens, UniProt Q9Y6L6). The data set is described as follows: OATP1B1 inhibition by XueBiJing compounds, transfected HEK293 cells [E217βG]. The format is in vitro ADME.
Sequence of OATP1B1 (Q9Y6L6 whole entry): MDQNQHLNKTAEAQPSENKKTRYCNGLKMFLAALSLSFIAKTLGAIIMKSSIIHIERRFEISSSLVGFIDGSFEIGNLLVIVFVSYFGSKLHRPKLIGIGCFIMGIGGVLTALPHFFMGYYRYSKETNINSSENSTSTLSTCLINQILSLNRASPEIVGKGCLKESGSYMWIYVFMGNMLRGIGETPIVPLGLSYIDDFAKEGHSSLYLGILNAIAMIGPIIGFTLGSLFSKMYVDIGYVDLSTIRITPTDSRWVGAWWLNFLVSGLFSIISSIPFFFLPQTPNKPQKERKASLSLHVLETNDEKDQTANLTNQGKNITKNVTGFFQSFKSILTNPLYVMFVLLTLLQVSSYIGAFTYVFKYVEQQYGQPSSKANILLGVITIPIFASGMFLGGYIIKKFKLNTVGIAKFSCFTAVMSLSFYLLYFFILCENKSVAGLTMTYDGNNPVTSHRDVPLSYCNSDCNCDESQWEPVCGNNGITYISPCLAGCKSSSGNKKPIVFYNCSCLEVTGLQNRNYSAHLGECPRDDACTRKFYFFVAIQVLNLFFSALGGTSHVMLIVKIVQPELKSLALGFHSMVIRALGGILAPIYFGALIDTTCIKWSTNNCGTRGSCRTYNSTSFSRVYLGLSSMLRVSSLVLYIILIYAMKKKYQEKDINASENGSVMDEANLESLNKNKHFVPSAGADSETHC
In a further data set the target is CYP2C9 (Homo sapiens, UniProt P11712). The data set is classed as in vitro ADME.
Sequence of CYP2C9 (P11712 whole entry): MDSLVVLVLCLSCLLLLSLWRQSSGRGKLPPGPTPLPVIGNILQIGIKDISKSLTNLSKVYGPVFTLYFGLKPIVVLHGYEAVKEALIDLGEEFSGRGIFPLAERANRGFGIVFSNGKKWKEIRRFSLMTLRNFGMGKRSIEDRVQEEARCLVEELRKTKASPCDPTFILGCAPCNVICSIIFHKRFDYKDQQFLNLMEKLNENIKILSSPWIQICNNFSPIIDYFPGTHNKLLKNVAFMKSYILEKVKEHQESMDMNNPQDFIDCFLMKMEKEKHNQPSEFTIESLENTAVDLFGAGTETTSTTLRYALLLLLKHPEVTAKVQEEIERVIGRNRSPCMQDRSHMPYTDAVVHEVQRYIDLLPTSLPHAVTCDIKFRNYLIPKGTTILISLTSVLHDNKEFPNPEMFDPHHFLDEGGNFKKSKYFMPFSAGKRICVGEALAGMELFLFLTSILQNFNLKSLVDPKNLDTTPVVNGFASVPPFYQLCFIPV
The next data set concerns the target CYP2C19 (Homo sapiens, UniProt P33261). The data set is classed as in vitro ADME.
In the next data set the test system is CYP2B6. The data set is described as follows: CYP2B6 induction by XueBiJing compounds in cryopreserved human hepatocytes. The data set is classed as in vitro ADME. The note with it: higher concentrations; range over the named compounds and enzymes.
Data set [1] concerns human drug metabolizing enzymes and transporters. In words: Inhibitory DDI index of XueBiJing compounds as perpetrators. The note with it: XueBiJing at label dose; range over the named compounds.
Data set [2] deals with T2, OATP1B3 (Homo sapiens, UniProt Q9NPD5).
T2 sequence (Q9NPD5 1-702): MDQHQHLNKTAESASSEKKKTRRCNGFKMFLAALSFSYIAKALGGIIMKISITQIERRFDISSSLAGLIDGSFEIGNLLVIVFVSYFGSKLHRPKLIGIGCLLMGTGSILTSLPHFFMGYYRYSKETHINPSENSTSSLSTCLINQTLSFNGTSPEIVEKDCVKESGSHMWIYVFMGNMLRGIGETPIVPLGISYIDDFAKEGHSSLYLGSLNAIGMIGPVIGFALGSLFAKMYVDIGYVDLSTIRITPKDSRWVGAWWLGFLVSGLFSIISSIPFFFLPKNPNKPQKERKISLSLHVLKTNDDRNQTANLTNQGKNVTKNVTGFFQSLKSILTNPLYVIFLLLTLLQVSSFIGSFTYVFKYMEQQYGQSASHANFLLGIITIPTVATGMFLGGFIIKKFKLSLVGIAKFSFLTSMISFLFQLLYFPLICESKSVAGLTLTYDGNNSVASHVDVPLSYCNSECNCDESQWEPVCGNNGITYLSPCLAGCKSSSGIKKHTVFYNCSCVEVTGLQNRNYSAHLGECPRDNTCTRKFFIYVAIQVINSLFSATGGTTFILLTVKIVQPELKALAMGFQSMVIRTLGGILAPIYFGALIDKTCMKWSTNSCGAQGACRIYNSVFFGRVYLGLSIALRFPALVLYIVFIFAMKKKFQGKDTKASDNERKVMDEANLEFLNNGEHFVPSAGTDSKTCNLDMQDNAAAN
The data set is described as follows: in vitro. The format is in vitro ADME.

The target of data set [3] is T2, OATP1B3.
The conditions of data set [4]: cited from earlier work.
For another data set, the system named is CYP3A4. The note with it: higher concentrations; range over the named compounds and enzymes.
For data set [5] the following is noted: XueBiJing compounds, cited from earlier work.
Data set [6] deals with T2, OATP1B3. In words: in vitro.
For data set [7] the following is noted: XueBiJing compounds; cited from earlier work.
[8] abbreviates: human, XueBiJing 100 mL via 75-min intravenous infusion.

Structures are written as SMILES. Entries after “also recorded” stand apart in the source; their conditions may differ.

Sequence of CYP2C19 (P33261 whole entry): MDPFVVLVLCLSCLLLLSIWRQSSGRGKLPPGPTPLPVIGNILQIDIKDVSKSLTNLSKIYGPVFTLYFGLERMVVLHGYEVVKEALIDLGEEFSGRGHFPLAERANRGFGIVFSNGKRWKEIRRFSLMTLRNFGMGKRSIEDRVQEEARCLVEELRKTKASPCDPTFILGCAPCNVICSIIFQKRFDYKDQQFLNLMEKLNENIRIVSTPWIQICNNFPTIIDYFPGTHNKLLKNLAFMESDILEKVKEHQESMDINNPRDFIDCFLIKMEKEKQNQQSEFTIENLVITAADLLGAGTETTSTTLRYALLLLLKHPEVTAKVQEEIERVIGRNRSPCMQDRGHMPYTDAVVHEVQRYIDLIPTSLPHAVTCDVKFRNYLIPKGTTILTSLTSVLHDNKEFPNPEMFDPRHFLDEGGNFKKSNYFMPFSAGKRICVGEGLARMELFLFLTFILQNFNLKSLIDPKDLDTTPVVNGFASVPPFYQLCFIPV

Regarding `O=C(/C=C/c1ccc(O)c2c1[C@H](C(=O)O[C@H](Cc1ccc(O)c(O)c1)C(=O)O)[C@@H](c1ccc(O)c(O)c1)O2)O[C@H](Cc1ccc(O)c(O)c1)C(=O)O` [X10, salvianolic acid B], the half-inhibitory concentration (IC50) (commonly the point on the concentration scale where inhibition reaches its midpoint) against UGT1A6 amounted to 15 ± 1 µM; at OATP1B1 it was 38 ± 3 µM; against OATP1B3 [3], 18 ± 4 µM. The inhibition (as a rule, the drop in the measured response relative to a control, in per cent) at 100 μmol/L on UGT1A6 (human, cDNA-expressed UGT1A6, probe 4-MU (100 μmol/L), 4-MUG formed) is > 90%; at OATP1B3 [6], > 50%. Further, the “Time-dependent inhibition of CYP2C9” value at CYP2C9 is reported as “negligible”. Moreover, the “Time-dependent inhibition of CYP2C19” value on CYP2C19 is recorded as “negligible”. The “mRNA-T/U ratio, CYP2B6” value in the data set on CYP2B6 was 4.0 to 9.6. Further, the “DDI index for inhibition of CYP2C9, CYP2C19, OATP1B1, OATP1B3, OAT1 and/or OAT3” value in [1] is reported as 0.00003–0.06. For the same compound, on OATP1B3 [2], the Km (in general, the substrate concentration at which the rate is half of its maximum) turned out to be 14 µM. Besides, the “fu-p (unbound fraction in plasma)” value in data set [4] (human plasma) is reported as 3%. Besides, the Cmax (commonly the peak of the concentration-time curve) in [4] (setting [8]) was 100 nM. The VSS in data set [4] (setting [8]) is 1.28 L/kg. In addition, the t1/2 in data set [4] (setting [8]) was 12 min. Further, the Major elimination route result in [4] (human) was “Hepatobiliary excretion; also recorded: Hepatic methylation”. For the same compound, in the data set with CYP3A4, the “mRNA-T/U ratio, CYP3A4” value was in the range of 4.0 to 9.6. Moreover, the pKa – broadly, the pH at which an ionisable group is half protonated – in data set [5] is on record as 2.8. Besides, in data set [5] (pH 7.4), the “LogD(7.4)” value is listed as −2.8. Also, the Membrane permeability result in [7] is on record as “Poor”.
